Experimental data taken from patent US20240252456A1, “ORAL COMPOSITION, SKIN COSMETIC AND HAIR COSMETIC” (MARUZEN PHARMACEUTICALS CO., LTD., priority 2021, published 2024).

How the values were obtained:
[1] = tested on: B16 melanoma cells; test: Melanin production suppressive action test on B16 melanoma cells; type: cell-based; details: 4 days, corrected by cell survival rate
Experimental: B16 melanoma cells were cultured using Dulbecco's modified Eagle's medium (DMEM) containing 10% FBS, and then the cells were collected by a trypsin treatment. The collected cells were diluted with DMEM containing 10% FBS and 1 mmol/L theophylline to a cell density of 24.0×10^4 cells/mL, then seeded with 300 μL per well in a 48-well plate, and cultured for 6 hours.
After the culturing was completed, 300 μL of each of test samples (Samples 1 to 3, see Table 5 below for final concentrations) dissolved in DMEM containing 10% FBS and 1 mmol/L theophylline was added to each well, and culturing was performed for 4 days. As a control, culturing was performed in the same manner using DMEM containing 10% FBS and 1 mmol/L theophylline to which no sample was added. After the culturing was completed, the medium was removed, 200 μL of 2 mol/L NaOH solution was added, the cells were disrupted using an ultrasonic disrupter, and the absorbance at a wavelength of 475 nm was measured. From the measured absorbance value, the amount of melanin was calculated based on a calibration curve created using synthetic melanin (available from SIGMA).
In addition, in order to measure the cell survival rate, after culturing in the same manner as above, the medium was removed, the cells were washed with 400 μL of PBS(−) buffer solution, 200 μL of Neutral Red dissolved at a final concentration of 0.05 mg/mL in DMEM containing 10% FBS was added to each well, and culturing was performed for 2.5 hours. After culturing, the neutral red solution was removed, and 200 μL of ethanol/acetic acid solution (ethanol:acetic acid:water=50:1:49) was added to each well to extract the dye. After extraction, the absorbance at a wavelength of 540 nm was measured. From the obtained results, the melanin production suppression rate (%) corrected by the cell survival rate was calculated using the following equation.
Terms in the equation represent the following respective ones. • A: Melanin amount without sample addition • B: Melanin amount with test sample addition • C: Absorbance at wavelength 540 nm without sample addition • D: Absorbance at wavelength 540 nm with test sample addition

[2] = tested on: Normal human dermal fibroblasts (NB1RGB); test: Hyaluronic acid production promotive action test; type: cell-based; details: 3 days, A/B×100 vs no sample
Experimental: Normal human dermal fibroblasts (NB1RGB) were cultured using Dulbecco's modified Eagle's medium (DMEM) containing 10% FBS, and then the cells were collected by a trypsin treatment. The collected cells were diluted with DMEM containing 0.25% FBS to a cell density of 1.6×10^5 cells/mL, then seeded with 100 μL per well in a 96-well plate, and cultured overnight.
After the culturing was completed, 100 μL of each of test samples (Samples 1 and 2, see Table 9 below for final concentrations) dissolved in DMEM containing 0.25% FBS was added to each well, and culturing was performed for 3 days. As a control, culturing was performed in the same manner using DMEM containing 0.25% FBS to which no sample was added. After the culturing was completed, the amount of hyaluronic acid in the medium of each well was measured by a sandwich method using hyaluronic acid binding protein (HABP). From the obtained results, the hyaluronic acid production promotion rate (%) was calculated using the following equation.
Hyaluronic acid production promotion rate (%)=A/B×100
Terms in the equation represent the following respective ones. • A: Hyaluronic acid amount with test sample addition • B: Hyaluronic acid amount without sample addition

[3] = tested on: FLG mRNA; test: Filaggrin (FLG) mRNA expression promotive action test; type: cell-based, human; details: NHEK, 24 hours, corrected with GAPDH
Experimental: (§1) Normal human neonatal epidermal keratinocytes (NHEK) were precultured using normal human epidermal keratinocyte growth medium (KGM), and the cells were collected by a trypsin treatment. The collected cells were diluted with KGM to a cell density of 15×10^4 cells/mL, then seeded with 2 mL portions in a 6-well plate (30×10^4 cells/well), and cultured overnight under conditions of 37° C. and 5% CO2. After culturing, the medium was replaced with normal human epidermal keratinocyte basal medium (KBM, the above KGM without addition of growth additives (hEGF, BPE, insulin, antibacterial agents, hydrocortisone)), and culturing was further performed for 24 hours.
(§2) After culturing for 24 hours, the medium was removed, and 2 mL of each of test samples (Samples 1 to 3, see Table 18 below for final concentrations) dissolved in KBM was added to each well, and culturing was performed under conditions of 37° C. and 5% CO2 for 24 hours. As a control, culturing was performed in the same manner using KBM to which no sample was added. After culturing, the medium was removed, total RNA was extracted using ISOGEN II (available from NIPPON GENE CO., LTD.), each RNA amount was measured using a spectrophotometer, and the total RNA was prepared so as to be 150 ng/μL.
For FLG and GAPDH as an internal standard, the expression levels of mRNA were measured using the above total RNA as a template. Detection was performed through a two-step real-time RT-PCR reaction using a real-time PCR device, Thermal Cycler Dice Real Time System III (available from Takara Bio Inc.), with PrimeScript™ RT Master Mix (Perfect Real Time) (available from Takara Bio Inc.) and TB Green® Fast qPCR Mix (available from Takara Bio Inc.). Primers available from Takara Bio Inc. were used. The expression level of FLG mRNA was obtained as a value corrected with a value of GAPDH based on total RNA preparations prepared from cells cultured “with test sample addition” and “without sample addition.” From the obtained values, the FLG mRNA expression promotion rate (%) was calculated using the following equation.
Terms in the equation represent the following respective ones. • A: Corrected value with test sample addition • B: Corrected value without sample addition

[4] = tested on: OCLN mRNA; test: Occludin (OCLN) mRNA expression promotive action test; type: cell-based, human; details: NHEK, 24 hours, corrected with GAPDH
Experimental: as §1
as §2, with “1 and” for “1 to”, “Table 20” for “Table 18”
For OCLN and GAPDH as an internal standard, the expression levels of mRNA were measured using the above total RNA as a template. Detection was performed through a two-step real-time RT-PCR reaction using a real-time PCR device, Thermal Cycler Dice Real Time System III (available from Takara Bio Inc.), with PrimeScript™ RT Master Mix (Perfect Real Time) (available from Takara Bio Inc.) and TB Green® Fast qPCR Mix (available from Takara Bio Inc.). Primers available from Takara Bio Inc. were used. The expression level of OCLN mRNA was obtained as a value corrected with a value of GAPDH based on total RNA preparations prepared from cells cultured “with test sample addition” and “without sample addition.” From the obtained values, the OCLN mRNA expression promotion rate (%) was calculated using the following equation. […]

SMILES	Melanin production suppression rate ([1]; 250 μmol/L) [%]	Hyaluronic acid production promotion rate ([2]; 25 μmol/L) [%]	FLG mRNA expression promotion rate ([3]; 25 μmol/L) [%]	FLG mRNA expression promotion rate ([3]; 100 μmol/L) [%]	OCLN mRNA expression promotion rate ([4]; 25 μmol/L) [%]	OCLN mRNA expression promotion rate ([4]; 100 μmol/L) [%]	Melanin production suppression rate ([1]; 62.5 μmol/L) [%]	Melanin production suppression rate ([1]; 1000 μmol/L) [%]	Hyaluronic acid production promotion rate ([2]; 50 μmol/L) [%]	Hyaluronic acid production promotion rate ([2]; 100 μmol/L) [%]	Hyaluronic acid production promotion rate ([2]; 200 μmol/L) [%]
O=C(O)CCc1ccc(O)c(O)c1 [Sample 1, 3,4-Dihydroxyhydrocinnamic acid]	63.8	124.2	197.2	342.0	209.9	557.3	–	–	–	–	–
O=C(O)CCc1ccc(O)cc1 [Sample 2, 3-(4-Hydroxyphenyl)propionic acid]	40.2	–	168.2	129.8	–	–	8.5	69.5	121.8	119.3	111.7
O=C(O)CCc1ccccc1 [Sample 3, 3-phenylpropionic acid]	46.2	–	196.6	–	141.5	–	–	57.0	–	–	–
